Source: US20060183105A1, “Human brain-derived tissue-specific potassium channel” (priority 1997, published 2006)

How the values were obtained:
[1] = molecular target: T1, human brain-derived potassium channel subunit SEQ ID NO:3 (hKvQT2) (Homo sapiens, UniProt O43526, N780T); assay: cell-based
T1 construct: EGFP (Enhanced Green Fluorescent Protein), from pEGFPC1; expressed in transfected cells; host or cells: COS-7 and HEK 293 cells, transient transfection
Experimental: transfection: HEK293 cells (ATCC, Rockville, Md.) were transfected as follows: 70 ul LipoTAXI (Stratagene, La Jolla, Calif.) was added to a polystyrene tube and gently mixed. Two (2) ug pEFGPC1 (control vector used to trace the transfected cells) and 5 ug of one of the constructs (SEQ ID NO:2 in pcDNA3 or SEQ ID NO:4 in pcDNA3) was added to the lipid/media mixture and incubated for 20 minutes. Two (2)mls of OPTI-MEM I was then added and mixed gently. Cells to be transfected were washed once with OPTI-MEM I, and the 3 ml of lipid-DNA mixture were added to the washed cells and incubated at 37° C. 5% CO2 for 4-6 hours. Cells were then refed with 10% Heat Inactivated FBS (Biowhittaker, Walkersville, Md.) DMEM (Mediatech 10-017-CV). For co-expression experiments, 2 ug pEGFPC1(control vector), 5 ug of pcDNA3QT2L ((SEQ ID NO:2 in pcDNA3) and 20 ug pcDNA3QT2S (SEQ ID NO:4 in pcDNA3) were used in this protocol. Cells were diluted and replated onto 35 mm dishes 24-48 hours prior to patch clamping.
COS-7 cells (ATCC, Rockville Md.) were transfected as follows: 25 ul DMRIE-C Reagent (Gibco BRL/Life Technologies, Gaithersburg, Md.) were added to 2 ml of OPTI-MEM I (Gibco BRL/Life Technologies, Gaithersburg, Md.), mixed gently and incubated for 20 minuets. Two (2) ug pEGPPC1QT2L (EGFP fused to the N-terminus of SEQ ID NO:2) and 7.3 ug pcDNA3 or 9.3 ug pcDNA3QT2S (SEQ ID NO:4 in pcDNA3) (for a 5 molar excess over hKvQT2L (SEQ ID NO:2) construct) were added to lipid/media mixture, mixed gently and incubated for 20 minutes. Two (2) mls of OPTI-MEM I was then added to this and mixed gently. Cells to be transfected were washed once with OPTI-MEM I, and the 4 ml of lipid-DNA mixture were added to the washed cells and incubated at 37° C. 5% CO2 for 4-6 hours. Cells were then refed with 10% Heat Inactivated FBS (Biowhittaker, Walkersville, Md.) DMEM (Mediatech 10-017-CV). Cells were trypsinized, diluted and replated onto 35 mm dishes 24-48 hours prior to patch clamping.
electrophysiology: All recordings were obtained using the conventional whole cell configuration (Hammill, O. P., et al., Pfluger Arch., 391, 85-100, 1981). Cells were transfected with 5 ug pcDNA3 or 2 ug pEGFPQT2L (EGFP fused to the N-terminus of SEQ ID NO:2) 24-48 hours prior to experiments. Extracellular solution was (mM): 160 NaCl, 4.5 KCl, 1 MgC2, 2 CaCl2, 5 HEPES, 5 glucose (pH: 7.4 by NaOH, ˜325 mOsm). In K+ selectivity experiments, equimolar Na^+ was substituted by K^+. Pipette solution was (mM): 150 K-aspartate, 2 MgCl2, 1 CaCl2, 5 HEPES, 1.6 EGTA (pH: 7.2 by KOH, ˜305 mOsm). Voltage protocols were implemented and data acquired using pClamp 6.0 software (Axon Instr., CA). Solution changes and drug application with a local perfusion system.

[2] = test system: mouse neocortical neurons; settings: cited from earlier work; for induction of apoptosis on exposure: neurons, exposure to the K+ ionophore or K+-channel opener
SN56 cells = settings: attenuation of the potassium current; cited from earlier work
hKQT2 and hKQT3 = hKQT2 and hKQT3 (Homo sapiens, UniProt O43525+O43526); settings: co-expression in oocytes, current mimics native M-currents; cited from earlier work
Chain of hKQT2 and hKQT3 (O43526 whole entry): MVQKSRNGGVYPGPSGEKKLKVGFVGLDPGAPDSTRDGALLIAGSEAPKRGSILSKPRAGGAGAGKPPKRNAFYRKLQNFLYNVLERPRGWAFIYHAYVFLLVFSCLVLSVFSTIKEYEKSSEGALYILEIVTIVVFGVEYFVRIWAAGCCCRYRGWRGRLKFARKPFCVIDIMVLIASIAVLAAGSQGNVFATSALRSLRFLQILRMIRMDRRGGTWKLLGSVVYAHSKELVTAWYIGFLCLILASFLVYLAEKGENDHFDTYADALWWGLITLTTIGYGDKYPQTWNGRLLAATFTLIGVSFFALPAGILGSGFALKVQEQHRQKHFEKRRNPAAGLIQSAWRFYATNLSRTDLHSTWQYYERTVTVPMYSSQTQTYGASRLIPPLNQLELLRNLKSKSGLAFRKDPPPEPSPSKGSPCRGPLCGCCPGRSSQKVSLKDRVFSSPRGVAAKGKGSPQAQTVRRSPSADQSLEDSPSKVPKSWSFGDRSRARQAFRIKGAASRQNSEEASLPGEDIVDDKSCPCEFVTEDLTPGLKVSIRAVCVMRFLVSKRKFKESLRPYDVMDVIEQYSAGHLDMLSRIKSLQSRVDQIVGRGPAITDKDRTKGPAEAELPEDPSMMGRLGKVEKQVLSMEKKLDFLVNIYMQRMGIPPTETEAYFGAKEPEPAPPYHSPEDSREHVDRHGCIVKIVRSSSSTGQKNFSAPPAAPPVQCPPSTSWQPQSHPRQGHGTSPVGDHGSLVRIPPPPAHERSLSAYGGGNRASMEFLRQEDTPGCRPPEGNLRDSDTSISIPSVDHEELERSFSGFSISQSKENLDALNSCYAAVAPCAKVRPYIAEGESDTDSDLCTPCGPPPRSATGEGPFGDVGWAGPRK
Chain of hKQT2 and hKQT3 (O43525 whole entry): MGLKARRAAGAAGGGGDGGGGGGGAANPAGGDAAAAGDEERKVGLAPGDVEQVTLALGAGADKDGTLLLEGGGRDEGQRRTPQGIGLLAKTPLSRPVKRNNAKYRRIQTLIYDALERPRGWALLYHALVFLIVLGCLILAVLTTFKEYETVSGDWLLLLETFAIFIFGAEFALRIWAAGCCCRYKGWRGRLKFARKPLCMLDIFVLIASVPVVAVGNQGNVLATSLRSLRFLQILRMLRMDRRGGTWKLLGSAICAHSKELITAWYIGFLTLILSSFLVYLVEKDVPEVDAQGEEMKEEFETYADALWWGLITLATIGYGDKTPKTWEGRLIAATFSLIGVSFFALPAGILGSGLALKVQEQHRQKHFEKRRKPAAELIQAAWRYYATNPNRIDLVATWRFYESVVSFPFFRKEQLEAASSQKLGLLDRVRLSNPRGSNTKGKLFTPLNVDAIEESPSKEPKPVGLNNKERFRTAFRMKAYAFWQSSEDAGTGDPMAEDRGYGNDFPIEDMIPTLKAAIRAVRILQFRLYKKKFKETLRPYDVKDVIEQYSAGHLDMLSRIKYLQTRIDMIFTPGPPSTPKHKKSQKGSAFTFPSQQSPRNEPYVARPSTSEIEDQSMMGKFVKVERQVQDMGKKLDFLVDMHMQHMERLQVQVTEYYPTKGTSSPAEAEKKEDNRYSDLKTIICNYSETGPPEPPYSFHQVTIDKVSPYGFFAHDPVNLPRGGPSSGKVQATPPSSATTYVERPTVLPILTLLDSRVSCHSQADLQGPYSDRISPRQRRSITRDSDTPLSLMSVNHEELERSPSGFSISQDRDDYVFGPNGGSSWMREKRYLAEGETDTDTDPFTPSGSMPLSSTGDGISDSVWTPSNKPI

T1 sequence (O43526 1-854 isoform O43526-2 N762T): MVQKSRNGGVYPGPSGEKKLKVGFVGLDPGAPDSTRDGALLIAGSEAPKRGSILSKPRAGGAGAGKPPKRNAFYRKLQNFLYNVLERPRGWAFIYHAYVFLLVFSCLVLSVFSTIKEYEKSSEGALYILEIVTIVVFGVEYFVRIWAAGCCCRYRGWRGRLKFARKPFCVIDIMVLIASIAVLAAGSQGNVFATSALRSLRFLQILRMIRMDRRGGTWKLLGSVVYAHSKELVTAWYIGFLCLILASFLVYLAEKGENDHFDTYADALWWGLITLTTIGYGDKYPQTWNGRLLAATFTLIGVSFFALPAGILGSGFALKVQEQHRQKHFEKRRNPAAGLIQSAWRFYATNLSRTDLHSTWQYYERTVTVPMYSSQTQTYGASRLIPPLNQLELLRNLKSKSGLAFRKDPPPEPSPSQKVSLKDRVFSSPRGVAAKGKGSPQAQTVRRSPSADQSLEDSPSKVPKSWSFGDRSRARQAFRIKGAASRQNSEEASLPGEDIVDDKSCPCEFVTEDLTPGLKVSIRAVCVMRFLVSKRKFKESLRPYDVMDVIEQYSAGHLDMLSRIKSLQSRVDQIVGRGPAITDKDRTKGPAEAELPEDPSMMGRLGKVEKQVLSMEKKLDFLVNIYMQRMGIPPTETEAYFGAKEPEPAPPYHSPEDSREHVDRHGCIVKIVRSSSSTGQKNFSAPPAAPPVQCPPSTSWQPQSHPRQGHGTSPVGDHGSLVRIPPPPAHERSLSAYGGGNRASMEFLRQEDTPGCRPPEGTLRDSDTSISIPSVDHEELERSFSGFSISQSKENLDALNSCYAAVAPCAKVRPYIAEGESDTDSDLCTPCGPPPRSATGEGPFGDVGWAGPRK

With `CC[N+](CC)(CC)CC.[Cl-]` [TEA, tetraethylammonium chloride] the IC50 [1] was 130 µM, the “slope factor of Hill fit, inhibition of SEQ ID NO:3 subunit” value ([1]; Hill fit to mean data points, FIG. 12D) was 0.59 and the “block of voltage-gated outward currents” value ([1]; externally applied, mammalian cells transfected with SEQ ID NO:2, FIG. 12D) was “blocked potently”. The “effect on apoptosis of mouse neocortical neurons” value ([2]; apoptosis induced by serum deprivation or staurosporine, attenuating outward K+ current) was “reduced apoptosis”, the “effect on Aβ-mediated toxicity” value (SN56 cells) was “block Aβ-mediated toxicity” and the “block of hKQT2/hKQT3 current” value (hKQT2 and hKQT3) was “block by TEA”.
With `[Ba+2].[Cl-].[Cl-]` [barium] the “blocking of hKvQT2 (SEQ ID NO:3) channel” value ([1]; channel expressed in mammalian cells, properties match M-current) was “blocking by barium”.
In the case of `CC1(C)Oc2ccc(C#N)cc2C(N2CCCC2=O)C1O` (centres unmarked) [cromakalim], the “induction of neuronal apoptosis” value ([2]; 24 to 48 hours of exposure) is given as “induced typical neuronal apoptosis” and the “induction of apoptosis on exposure” value [2] is given as “induced apoptosis”.
For `CC(C)[C@@H]1NC(=O)[C@H](C)OC(=O)[C@@H](C(C)C)NC(=O)[C@@H](C(C)C)OC(=O)[C@H](C(C)C)NC(=O)[C@H](C)OC(=O)[C@@H](C(C)C)NC(=O)[C@@H](C(C)C)OC(=O)[C@H](C(C)C)NC(=O)[C@H](C)OC(=O)[C@@H](C(C)C)NC(=O)[C@@H](C(C)C)OC1=O` [valinomycin], the “induction of neuronal apoptosis in cortical cultures” value ([2]; 20 nM, 24 to 48 hours) is given as “induced typical neuronal apoptosis” and the “induction of apoptosis on exposure” value [2] is given as “induced apoptosis”.
